Reference: patent US8658661B2, “Oxadiazole inhibitors of leukotriene production” (Boehringer Ingelheim International GmbH, priority 2010, dated 2014)

Assays:
[1] = molecular target: T1, recombinant human FLAP protein (Homo sapiens, UniProt P20292); assay: FLAP binding assay (SPA, displacement of [125I]L-691,831); conditions: membranes of sf9 cells expressing recombinant human FLAP; [125I]L-691,831 probe; read-out: FLAP binding IC50
T1 construct: made in house; host or cells: Sf9 insect cells (100,000×g membrane pellet used)
T1 sequence (P20292 1-161): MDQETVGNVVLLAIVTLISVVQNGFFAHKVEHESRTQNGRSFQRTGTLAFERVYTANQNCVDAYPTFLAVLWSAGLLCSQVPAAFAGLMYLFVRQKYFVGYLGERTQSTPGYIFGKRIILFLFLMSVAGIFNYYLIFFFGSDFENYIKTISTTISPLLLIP
In short: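 Membranes from sf9 cells expressing human FLAP in pH 7.5 Tris buffer (MgCl2, EDTA, PMSF). Non-specific binding defined with 10 μM cold L-691,831.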

[2] = test system: synthesis of LTB4 in human whole blood; assay: Human whole blood assay (inhibition of LTB4 synthesis, calcimycin stimulated); type: cell-based; conditions: heparinized human whole blood, calcimycin 20 μM, plasma LTB4
In short: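 Readout: plasma LTB4 by antibody-based HTRF. Compound added to heparinized human whole blood, 15 min 37° C; calcimycin 20 μM final (PBS pH 7.4), 30 min 37° C; spun 1500×g 5 min, plasma taken.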

Compound	IC50 [1] [nM]	IC50 [2] [nM]
Cc1nc(N)cnc1-c1ccc([C@](C)(c2noc(-c3cnn(CC(=O)N(C)C)c3)n2)C2CC2)cc1 [Example 285, 2-[4-(3-{(R)-1-[4-(5-Amino-3-methyl-pyrazin-2-yl)-phenyl]-1-cyclopropyl-ethyl}-[1,2,4]oxadiazol-5-yl)-pyrazol-1-yl]-N,N-dimethyl-acetamide]	7	190
CC(C)C(C)(c1ccc(-c2cnc(N)nc2)cc1)c1noc(N2CCN(C)CC2)n1 (centres unmarked) [Example 96, 5-(4-{3-methyl-2-[5-(4-methylpiperazin-1-yl)-1,2,4-oxadiazol-3-yl]butan-2-yl}phenyl)pyrimidin-2-amine]	7.5	150
CNC(=O)Cn1cc(-c2nc(C(C)(c3ccc(-c4cnc(N)nc4)cc3)C3CC3)no2)cn1 (centres unmarked) [Example 60, 2-[4-(3-{1-[4-(2-aminopyrimidin-5-yl)phenyl]-1-cyclopropylethyl}-1,2,4-oxadiazol-5-yl)-1H-pyrazol-1-yl]-N-methylacetamide]	4	140
COCCNc1nc(C(C)(c2ccc(-c3cnc(N)nc3)cc2)C(C)C)no1 (centres unmarked) [Example 81, 5-[4-(2-{5-[(2-methoxyethyl)amino]-1,2,4-oxadiazol-3-yl}-3-methylbutan-2-yl)phenyl]pyrimidin-2-amine]	11	180
CC(C)C(C)(c1ccc(-c2cnc(N)nc2)cc1)c1noc(C2CCN(C(=O)OC(C)(C)C)CC2)n1 (centres unmarked) [Example 109, 4-(3-{1-[4-(2-Amino-pyrimidin-5-yl)-phenyl]-1,2-dimethyl-propyl}-1,2,4-oxadiazol-5-yl)-piperidine-1-carboxylic acid tert-butyl ester]	46	1500
CC(C)C(C)(c1ccc(-c2cnc(N)nc2)cc1)c1noc(C2CCCN(C(=O)OC(C)(C)C)C2)n1 (centres unmarked) [Example 111, tert-butyl 3-(3-{2-[4-(2-aminopyrimidin-5-yl)phenyl]-3-methylbutan-2-yl}-1,2,4-oxadiazol-5-yl)piperidine-1-carboxylate]	15	2900
CNC(=O)Cn1cc(-c2nc(C(C)(c3ccc(-c4cnc(N)nc4)cc3)C3CCC3)no2)cn1 (centres unmarked) [Example 98, 2-[4-(3-{1-[4-(2-aminopyrimidin-5-yl)phenyl]-1-cyclobutylethyl}-1,2,4-oxadiazol-5-yl)-1H-pyrazol-1-yl]-N-methylacetamide]	12	570
CN(C)C(=O)Cn1cc(-c2nc(C(C)(c3ccc(-c4cnc(N)c(C(F)(F)F)n4)cc3)C3CC3)no2)cn1 (centres unmarked) [Example 289, 2-[4-(3-{1-[4-(5-Amino-6-trifluoromethyl-pyrazin-2-yl)-phenyl]-1-cyclopropyl-ethyl}-[1,2,4]oxadiazol-5-yl)-pyrazol-1-yl]-N,N-dimethyl-acetamide]	22	1000
CCC(C)(c1ccc(-c2cnc(N)nc2)cc1)c1noc(-c2ccc(C)nc2)n1 (centres unmarked) [Example 143, 5-(4-{2-[5-(6-methylpyridin-3-yl)-1,2,4-oxadiazol-3-yl]butan-2-yl}phenyl)pyrimidin-2-amine]	4.1	360
Cc1ccc(-c2nc(C(C)(c3ccc(-c4cnc(N)nc4)cc3)C(C)C)no2)c(O)n1 (centres unmarked) [Example 157, 3-(3-{2-[4-(2-aminopyrimidin-5-yl)phenyl]-3-methylbutan-2-yl}-1,2,4-oxadiazol-5-yl)-6-methylpyridin-2-ol]	3.3	760
CC(C)C(C)(c1ccc(-c2cnc(N)nc2)cc1)c1noc(-c2cnn(C(C)(C)C(=O)O)c2)n1 (centres unmarked) [Example 160, 2-[4-(3-{2-[4-(2-aminopyrimidin-5-yl)phenyl]-3-methylbutan-2-yl}-1,2,4-oxadiazol-5-yl)-1H-pyrazol-1-yl]-2-methylpropanoic acid]	9	> 5000
CC(C)(O)Cn1cc(-c2nc(C(C)(C)c3ccc(-c4cnc(N)nc4)cc3)no2)cn1 [Example 75, 1-[4-(3-{2-[4-(2-aminopyrimidin-5-yl)phenyl]propan-2-yl}-1,2,4-oxadiazol-5-yl)-1H-pyrazol-1-yl]-2-methylpropan-2-ol]	23	260
CC(C)C(C)(c1ccc(-c2cnc(N)nc2)cc1)c1noc(C2CCN(C)CC2)n1 (centres unmarked) [Example 150, 5-(4-{3-methyl-2-[5-(1-methylpiperidin-4-yl)-1,2,4-oxadiazol-3-yl]butan-2-yl}phenyl)pyrimidin-2-amine]	330	1800
CC(C)C(C)(c1ccc(-c2cnc(N)nc2)cc1)c1noc(C2CCCCN2C(=O)OC(C)(C)C)n1 (centres unmarked) [Example 112, tert-butyl 2-(3-{2-[4-(2-aminopyrimidin-5-yl)phenyl]-3-methylbutan-2-yl}-1,2,4-oxadiazol-5-yl)piperidine-1-carboxylate]	190	> 5000
CC(C)C(C)(c1ccc(-c2cnc(N)nc2)cc1)c1noc(C2CCCNC2)n1 (centres unmarked) [Example 113, 5-(4-{3-methyl-2-[5-(piperidin-3-yl)-1,2,4-oxadiazol-3-yl]butan-2-yl}phenyl)pyrimidin-2-amine]	66	3100
CC(C)C(C)(c1ccc(-c2cnc(N)nc2)cc1)c1noc(-c2cccnc2)n1 (centres unmarked) [Example 3, 5-(4-{3-methyl-2-[5-(pyridin-3-yl)-1,2,4-oxadiazol-3-yl]butan-2-yl}phenyl)pyrimidin-2-amine]	1.7	94
CC(C)C(C)(c1ccc(-c2cnc(N)nc2)cc1)c1noc(N2CCN(CCO)CC2)n1 (centres unmarked) [Example 186, 2-[4-(3-{1-[4-(2-Amino-pyrimidin-5-yl)-phenyl]-1,2-dimethyl-propyl}-[1,2,4]oxadiazol-5-yl)-piperazin-1-yl]-ethanol]	20	150
CC(c1ccc(-c2cnc(N)nc2)cc1)(c1noc(N2CCC[C@@H](O)C2)n1)C1CC1 (stereo partly drawn) [Example 287, (R)-1-(3-{1-[4-(2-Amino-pyrimidin-5-yl)-phenyl]-1-cyclopropyl-ethyl}-[1,2,4]oxadiazol-5-yl)-piperidin-3-ol]	7	150
CC(=O)N1CCN(c2nc(C(C)(c3ccc(-c4cnc(N)nc4)cc3)C(C)C)no2)CC1 (centres unmarked) [Example 169, 1-[4-(3-{1-[4-(2-Amino-pyrimidin-5-yl)-phenyl]-1,2-dimethyl-propyl}-[1,2,4]oxadiazol-5-yl)-piperazin-1-yl]-ethanone]	14	370
CC(C)[C@@](C)(c1ccc(-c2cnc(N)nc2)cc1)c1noc(-c2cnn(CC(C)(C)O)c2)n1 [Example 108, 1-[4-(3-{(2S)-2-[4-(2-aminopyrimidin-5-yl)phenyl]-3-methylbutan-2-yl}-1,2,4-oxadiazol-5-yl)-1H-pyrazol-1-yl]-2-methylpropan-2-ol]	8.7	320
CC(C)C(C)(c1ccc(-c2cnc(N)nc2)cc1)c1noc(-c2ccccc2)n1 (centres unmarked) [Example 2, 5-{4-[3-methyl-2-(5-phenyl-1,2,4-oxadiazol-3-yl)butan-2-yl]phenyl}pyrimidin-2-amine]	5.1	680
COc1cncc(-c2ccc(C(C)(c3noc(-c4cnn(C)c4)n3)C3CC3)cc2)c1 (centres unmarked) [Example 286, 3-(4-{1-Cyclopropyl-1-[5-(1-methyl-1H-pyrazol-4-yl)-[1,2,4]oxadiazol-3-yl]-ethyl}-phenyl)-5-methoxy-pyridine]	16	2100
Cc1ccc(-c2nc(C(C)(C)c3ccc(-c4cnc(N)nc4)cc3)no2)cn1 [Example 37, 5-(4-{2-[5-(6-methylpyridin-3-yl)-1,2,4-oxadiazol-3-yl]propan-2-yl}phenyl)pyrimidin-2-amine]	7.4	250
CC(C)C(C)(c1ccc(-c2cnc(N)nc2)cc1)c1noc(N2CCS(=O)(=O)CC2)n1 (centres unmarked) [Example 168, 5-(4-{1-[5-(1,1-Dioxo-1lambda6-thiomorpholin-4-yl)-[1,2,4]oxadiazol-3-yl]-1,2-dimethyl-propyl}-phenyl)-pyrimidin-2-ylamine]	21	390
C[C@@](c1ccc(-c2cnc(N)nc2)cc1)(c1noc(-c2cnn(CCN)c2)n1)C1CC1 [Example 190, 5-[4-((R)-1-{5-[1-(2-Amino-ethyl)-1H-pyrazol-4-yl]-[1,2,4]oxadiazol-3-yl}-1-cyclopropyl-ethyl)-phenyl]-pyrimidin-2-ylamine]	5.9	230
C[C@@](c1ccc(-c2cnc(N)nc2)cc1)(c1noc(-c2cnn(C3COC3)c2)n1)C1CCC1 [Example 102, 5-{4-[(1R)-1-cyclobutyl-1-{5-[1-(oxetan-3-yl)-1H-pyrazol-4-yl]-1,2,4-oxadiazol-3-yl}ethyl]phenyl}pyrimidin-2-amine]	1.6	51
Cc1cc(-c2ccc([C@](C)(c3noc(-c4cnn(C)c4)n3)C3CC3)cc2)cnc1N [Example 185, 5-(4-{(R)-1-Cyclopropyl-1-[5-(1-methyl-1H-pyrazol-4-yl)-[1,2,4]oxadiazol-3-yl]-ethyl}-phenyl)-3-methyl-pyridin-2-ylamine]	1.9	28
CC(C)C(C)(c1ccc(-c2cnc(N)nc2)cc1)c1noc(-c2ccnnc2)n1 (centres unmarked) [Example 147, 5-(4-{3-methyl-2-[5-(pyridazin-4-yl)-1,2,4-oxadiazol-3-yl]butan-2-yl}phenyl)pyrimidin-2-amine]	2.7	86
